We go through seven molecules from US4020111A, “Propynyloxy alkyl arene insecticides” (priority 1975, dated 1977).

SMILES strings stand for the structures.

Data set [1] concerns mice. Put plainly: extension of Noludar sleeping time by synergists. Conditions: Noludar 110 mg/K, synergist 110 mg/K; for Relative Sleeping Time: treated/control. The data set is classed as in vivo, Swiss albino white male mice. In a few lines: (§1)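 Swiss albino male mice (~38 days, 25-30 g) given synergist at 74.0 or 110.0 mg/kg in corn oil 1 h before Secobarbital 37.0 mg/kg or Noludar 110.0 mg/kg in water. Sleeping time measured from drug dosing to righting-reflex recovery; relative sleeping time = treated ÷ drug-only control.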

The subject of data set [2] is mice. Put plainly: extension of Secobarbital sleeping time by synergists. The data set is classed as in vivo, Swiss albino white male mice. Conditions: Secobarbital 37 mg/K; for Relative Sleeping Time: treated/control. In a few lines: as §1
Data set [3] concerns IN/WHO strain house flies. Nature of the data set: topical application test, percent kill after 24 hours, IN/WHO strain. It is filed as in vivo, house fly (susceptible IN/WHO strain). In a few lines:
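Susceptible female IN/WHO house flies, 3–5 days old, CO2-anesthetized, received synergist plus insecticide in acetone (1.0 μL) on the thorax; doses in μg/fly. Flies held 10 per dish, 3–5 dishes/treatment, with skim milk; mortality (percent kill) read at 24 h.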

Data set [4] concerns mice. Put plainly: synergism of acute toxicity of Dimetilan, GS 13005, Secobarbital and Methadone (intraperitoneal). The data set is classed as in vivo, Swiss albino white male mice. Conditions: for number of mice dead: 48 hours, of eight mice. In outline: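 Male Swiss albino mice (5–6 weeks, 23–27 g), eight per dose; synergist in corn oil given i.p. 1 h before i.p. insecticide or drug (drugs in distilled water). Lethality recorded over at least 6 h; controls received corn oil plus agent alone.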

Where [5] appears, read: Mobam 0.10 + synergist 0.50 μg/fly.
Setting [6] is: Dimetilan 8 mg/kg + synergist 80 mg/kg ip.
Where [7] appears, read: Dimetilan 8 mg/kg + synergist 240 mg/kg ip.
Setting [8] is: Diazinon 0.03 + synergist 0.15 μg/fly.
Setting [9] is: Mobam 0.20 + synergist 1 μg/fly.
Where [10] appears, read: Mobam 0.05 + synergist 0.25 μg/fly.
[11] abbreviates: Mobam 0.50 μg/fly, synergist/insecticide 5/1.
The mark [12] stands for this setting: Mobam 1.0 μg/fly, synergist/insecticide 1/1.
[13] abbreviates: Mobam 1.0 μg/fly, synergist/insecticide 2/1.
[14] abbreviates: Mobam 1.0 μg/fly, synergist/insecticide 5/1.
The mark [15] stands for this setting: GS 13005 71 mg/kg + synergist 213 mg/kg.
Setting [16] is: Methadone 32 mg/kg + synergist 215 mg/kg.
[17] abbreviates: Secobarbital 90 mg/kg + synergist 215 mg/kg.

On to `C#CCON=C(C)c1ccc(Cl)cc1` [I-D], for which the entries for the “Mean Sleeping Time” value with mice [1], with mice [2] (synergist 74 mg/K) and in the data set with mice [2] (synergist 110 mg/K) were 58 min, 62 min and 56 min, respectively. Besides, the results for the “Relative Sleeping Time” value with mice [1], with mice [2] (synergist 74 mg/K) and in the data set with mice [2] (synergist 110 mg/K) were 1.5, 1.9 and 1.7, respectively. Further, the “percent kill after 24 hours” value in data set [3] (setting [5]) is 20%. In addition, the “number of mice dead” value is 1 in the data set with mice [4] (setting [6]) and 6 in the data set with mice [4] (setting [7]).

In the case of `C#CCON=C(C)c1ccc2ccccc2c1` [I-F], the “Mean Sleeping Time” value in the data set with mice [1] was determined as 55 min; in the data set on mice [2] (synergist 74 mg/K), 32 min; in the data set on mice [2] (synergist 110 mg/K) it was 70 min. For the same molecule, the “Relative Sleeping Time” value worked out at 1.4 in the data set with mice [1], 1.1 with mice [2] (synergist 74 mg/K) and 2.2 in the data set with mice [2] (synergist 110 mg/K). The “percent kill after 24 hours” value worked out at 24% in data set [3] (setting [8]), 45% in data set [3] (GS 13005 0.10 + synergist 0.50 μg/fly) and 47% in data set [3] (setting [9]). In addition, the “number of mice dead” value with mice [4] (setting [6]) is given as 0; in the data set with mice [4] (setting [7]) it was 4.

For the molecule `C#CCON=Cc1ccc(Cl)cc1Cl` [I-G], the “Mean Sleeping Time” value is 48 min in the data set on mice [1], 27 min in the data set with mice [2] (synergist 74 mg/K) and 55 min in the data set with mice [2] (synergist 110 mg/K). Also, the entries for the “Relative Sleeping Time” value in the data set on mice [1], in the data set on mice [2] (synergist 74 mg/K) and in the data set with mice [2] (synergist 110 mg/K) were 1.2, 1.0 and 1.7, respectively. Moreover, the “percent kill after 24 hours” value in data set [3] (Diazinon 0.02 + synergist 0.10 μg/fly) worked out at 40%. In addition, the “number of mice dead” value in the data set with mice [4] (setting [7]) worked out at 0.

Turning to `C#CCOCc1ccc(Cl)c(Cl)c1` [II-C], the entries for the “Mean Sleeping Time” value in the data set on mice [1] and in the data set on mice [2] (synergist 110 mg/K) were 50 min and 33 min, respectively. Moreover, the “Relative Sleeping Time” value in the data set with mice [1] is reported as 1.3; with mice [2] (synergist 110 mg/K), 1.0. Besides, the “percent kill after 24 hours” value turned out to be 25% in data set [3] (setting [8]), 4% in data set [3] (setting [10]) and 27% in data set [3] (setting [5]). Moreover, in the data set with mice [4] (setting [7]), the “number of mice dead” value turned out to be 0.

As for `C#CCOCc1ccc(Cl)c(Cl)c1Cl` [II-D], the “Mean Sleeping Time” value came out at 46 min in the data set on mice [1] and 60 min in the data set with mice [2] (synergist 110 mg/K). For the same molecule, the “Relative Sleeping Time” value was found to be 1.0 in the data set on mice [1] and 1.2 in the data set on mice [2] (synergist 110 mg/K). For the same molecule, the “percent kill after 24 hours” value was 40% in data set [3] (setting [8]), 10% in data set [3] (setting [10]) and 100% in data set [3] (setting [9]). The “percent mortality 24 hours” value in data set [3] (Mobam 0.13 μg/fly, synergist/insecticide 1/1) came to 17%; in data set [3] (Mobam 0.25 μg/fly, synergist/insecticide 0.5/1), 30%; in data set [3] (Mobam 0.50 μg/fly, synergist/insecticide 1/1), 100%; in data set [3] (setting [11]), 100%; in data set [3] (setting [12]) it was 100%; in data set [3] (setting [13]) it was 100%. The “percent mortality 24 hours” value in data set [3] (setting [14]) is reported as 100%. Further, the “number of mice dead” value in the data set with mice [4] (setting [7]) is given as 0. The “mice lethality (number dead)” value came out at 3 in the data set with mice [4] (setting [15]), 2 in the data set with mice [4] (setting [16]) and 1 in the data set on mice [4] (setting [17]).

For `C#CCOCc1c(Cl)ccc(Cl)c1Cl` [II-E], the “Mean Sleeping Time” value in the data set on mice [1] was 45 min; in the data set on mice [2] (synergist 110 mg/K), 44 min. Also, the “Relative Sleeping Time” value in the data set on mice [1] came to 1.1; with mice [2] (synergist 110 mg/K), 1.4. Further, the “percent mortality 24 hours” value in data set [3] (setting [11]) is reported as 100%; in data set [3] (Mobam 1.0 μg/fly, synergist/insecticide 0.5/1) it was 100%; in data set [3] (setting [12]), 100%; in data set [3] (setting [13]) it was 100%; in data set [3] (setting [14]) it was 100%. In addition, the figures for the “percent kill after 24 hours” value in data set [3] (setting [5]), in data set [3] (setting [9]) and in data set [3] (synergist alone 1 μg/fly) were 33%, 100% and 0%, respectively. Further, the “number of mice dead” value in the data set with mice [4] (setting [7]) worked out at 0.

Consider `C#CCOCc1c(Cl)cccc1[N+](=O)[O-]` [II-K], for which the “Mean Sleeping Time” value was determined as 75 min in the data set on mice [1], 48 min in the data set on mice [2] (synergist 74 mg/K) and 44 min in the data set with mice [2] (synergist 110 mg/K). In addition, the entries for the “Relative Sleeping Time” value in the data set with mice [1], in the data set with mice [2] (synergist 74 mg/K) and with mice [2] (synergist 110 mg/K) were 2.4, 1.5 and 2, respectively. Further, the entries for the “24 hour percent mortality” value in data set [3] (Bidrin 0.063 μg/fly with five parts synergist) and in data set [3] (Pyrolan 0.13 μg/fly with five parts synergist) were 0% and 40%, respectively. In addition, the “number of mice dead” value is reported as 0 with mice [4] (setting [6]) and 6 in the data set on mice [4] (setting [7]). The “mice lethality (number dead)” value came out at 3 in the data set with mice [4] (setting [15]), 2 with mice [4] (setting [16]) and 1 in the data set on mice [4] (setting [17]).
